Experimental data reported in ChEMBL document CHEMBL3877266, “Repurposing N,N'-bis-(arylamidino)-1,4-piperazinedicarboxamidines: An unexpected class of potent inhibitors of cholinesterases” (Eur J Med Chem, 2017).

How the values were obtained:
Acetylcholinesterase [1] = target: T1, Acetylcholinesterase (Electrophorus electricus, UniProt O42275); experiment: Competitive inhibition of Electrophorus electricus acetylcholinesterase in presence of varying acetylthiocholine iodide substrate level preincubated for 20 mins followed by substrate addition measured every 1 min for 30 mins
Acetylcholinesterase [2] = target: T1, Acetylcholinesterase; experiment: Non-competitive inhibition of Electrophorus electricus acetylcholinesterase in presence of varying acetylthiocholine iodide substrate level preincubated for 20 mins followed by substrate addition measured every 1 min for 30 mins
Cholinesterase [3] = target: T2, Cholinesterase (Equus caballus, UniProt P81908); experiment: Competitive inhibition of equine serum butyrylcholinesterase in presence of varying butyrylthiocholine iodide substrate level preincubated for 20 mins followed by substrate addition measured every 1 min for 30 mins
Cholinesterase [4] = target: T2, Cholinesterase; experiment: Non-competitive inhibition of equine serum butyrylcholinesterase in presence of varying butyrylthiocholine iodide substrate level preincubated for 20 mins followed by substrate addition measured every 1 min for 30 mins

T2 sequence (P81908 whole entry): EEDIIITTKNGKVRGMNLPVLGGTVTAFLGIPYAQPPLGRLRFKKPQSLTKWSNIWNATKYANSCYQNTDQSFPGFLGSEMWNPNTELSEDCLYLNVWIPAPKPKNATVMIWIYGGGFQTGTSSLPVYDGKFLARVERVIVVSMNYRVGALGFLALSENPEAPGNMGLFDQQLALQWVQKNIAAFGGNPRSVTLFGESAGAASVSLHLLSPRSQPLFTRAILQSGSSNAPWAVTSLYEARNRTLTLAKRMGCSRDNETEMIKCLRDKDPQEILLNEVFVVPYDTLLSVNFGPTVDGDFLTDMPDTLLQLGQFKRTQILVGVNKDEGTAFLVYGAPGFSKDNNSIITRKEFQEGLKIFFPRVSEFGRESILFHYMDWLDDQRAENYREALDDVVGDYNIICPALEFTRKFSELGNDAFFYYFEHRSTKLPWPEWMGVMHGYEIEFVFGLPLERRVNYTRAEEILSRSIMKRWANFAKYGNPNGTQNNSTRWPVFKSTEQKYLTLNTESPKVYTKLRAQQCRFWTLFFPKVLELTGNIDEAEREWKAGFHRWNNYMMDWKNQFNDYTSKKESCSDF
T1 sequence (O42275 whole entry): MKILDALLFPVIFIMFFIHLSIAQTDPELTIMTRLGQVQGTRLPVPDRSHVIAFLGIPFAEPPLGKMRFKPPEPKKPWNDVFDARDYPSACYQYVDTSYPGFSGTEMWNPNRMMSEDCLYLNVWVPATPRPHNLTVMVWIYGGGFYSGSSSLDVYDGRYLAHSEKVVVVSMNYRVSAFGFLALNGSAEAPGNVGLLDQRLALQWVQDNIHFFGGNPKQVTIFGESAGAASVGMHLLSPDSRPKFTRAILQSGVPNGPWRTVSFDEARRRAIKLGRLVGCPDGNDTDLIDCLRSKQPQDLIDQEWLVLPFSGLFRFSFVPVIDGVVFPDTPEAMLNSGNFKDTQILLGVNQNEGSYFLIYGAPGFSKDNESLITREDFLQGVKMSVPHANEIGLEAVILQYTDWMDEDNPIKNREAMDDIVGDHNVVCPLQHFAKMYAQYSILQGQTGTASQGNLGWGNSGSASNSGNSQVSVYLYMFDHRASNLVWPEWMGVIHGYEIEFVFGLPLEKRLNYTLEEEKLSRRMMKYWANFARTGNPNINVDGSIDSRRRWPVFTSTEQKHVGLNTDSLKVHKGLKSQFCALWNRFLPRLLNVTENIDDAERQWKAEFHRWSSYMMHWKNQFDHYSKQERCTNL

Structure (SMILES)	Ki (Acetylcholinesterase [1]) [µM]	Ki (Acetylcholinesterase [2]) [µM]	Ki (Cholinesterase [3]) [µM]	Ki (Cholinesterase [4]) [µM]
N=C(NC(=N)N1CCN(C(=N)NC(=N)Nc2ccccc2)CC1)Nc1ccccc1	13.5	69.2	0.95	> 40
N=C(NC(=N)N1CCN(C(=N)NC(=N)Nc2cccc(I)c2)CC1)Nc1cccc(I)c1	2.79	19.9	0.21	3.04
COc1ccccc1NC(=N)NC(=N)N1CCN(C(=N)NC(=N)Nc2ccccc2OC)CC1	4.34	13.7	5.2	34
N=C(NC(=N)N1CCN(C(=N)NC(=N)Nc2ccc([N+](=O)[O-])cc2)CC1)Nc1ccc([N+](=O)[O-])cc1	0.52	2.96	10.8	22.9
CC(C)(C)c1ccc(NC(=N)NC(=N)N2CCN(C(=N)NC(=N)Nc3ccc(C(C)(C)C)cc3)CC2)cc1	1.41	21.8	0.12	4.41
N=C(NC(=N)N1CCN(C(=N)NC(=N)Nc2ccc(I)cc2)CC1)Nc1ccc(I)cc1	5.08	49.1	0.31	2.74
N=C(NC(=N)N1CCN(C(=N)NC(=N)Nc2ccc(Cl)cc2)CC1)Nc1ccc(Cl)cc1 [PICLOXYDINE]	22	28.3	0.62	9.37
COc1cc(NC(=N)NC(=N)N2CCN(C(=N)NC(=N)Nc3cc(OC)c(OC)c(OC)c3)CC2)cc(OC)c1OC	7.74	41.2	9.03	
N=C(NC(=N)N1CCN(C(=N)NC(=N)Nc2cccc(F)c2)CC1)Nc1cccc(F)c1	14.9	104	1.7	32.9
N=C(NC(=N)N1CCN(C(=N)NC(=N)Nc2ccc(Cl)cc2Cl)CC1)Nc1ccc(Cl)cc1Cl	9.34	75.3	0.41	7.51
COc1ccc(NC(=N)NC(=N)N2CCN(C(=N)NC(=N)Nc3ccc(OC)cc3)CC2)cc1	25.6	88.9	1.78	35.1
Cc1ccc(NC(=N)NC(=N)N2CCN(C(=N)NC(=N)Nc3ccc(C)cc3)CC2)cc1	9.25	> 100	0.45	11.8
N=C(NC(=N)N1CCN(C(=N)NC(=N)Nc2cccc(Cl)c2)CC1)Nc1cccc(Cl)c1	4.45	> 30	0.74	12.2
COc1cccc(NC(=N)NC(=N)N2CCN(C(=N)NC(=N)Nc3cccc(OC)c3)CC2)c1	10.4	45.2	3.02	54.8
N=C(NC(=N)N1CCN(C(=N)NC(=N)Nc2ccc(OC(F)(F)F)cc2)CC1)Nc1ccc(OC(F)(F)F)cc1	19.8	62.2	3.34	> 20
N=C(NC(=N)N1CCN(C(=N)NC(=N)Nc2ccccc2F)CC1)Nc1ccccc1F	14.9	58.6	6.82	25.5
N=C(NC(=N)N1CCN(C(=N)NC(=N)Nc2ccc(Br)cc2)CC1)Nc1ccc(Br)cc1	3.43	35.5	0.61	3.84
N=C(NC(=N)N1CCN(C(=N)NC(=N)Nc2cccc(Br)c2)CC1)Nc1cccc(Br)c1	6.17	25.4	0.23	10.3
N=C(NC(=N)N1CCN(C(=N)NC(=N)Nc2ccccc2Br)CC1)Nc1ccccc1Br	4.19	40.5	1.25	12.3
N=C(NC(=N)N1CCN(C(=N)NC(=N)Nc2ccccc2I)CC1)Nc1ccccc1I	1.56	> 100	1.96	11.2
N=C(NC(=N)N1CCN(C(=N)NC(=N)Nc2ccc(F)cc2)CC1)Nc1ccc(F)cc1	7.77	16.2	1.18	15.2
N=C(NC(=N)N1CCN(C(=N)NC(=N)Nc2ccccc2Cl)CC1)Nc1ccccc1Cl	6.11	66.7	1.85	12.7
